Experimental data: ChEMBL document CHEMBL4339206, “Specific stabilization of DNA G-quadruplex structures with a chemically modified complementary probe” (Bioorg Med Chem, 2019)
Active and inactive are the calls of the source. No cut-off for these calls is given here.

Key:
Format in all cases: nucleic-acid assay
Quadruplex DNA [1] = experiment: Binding affinity to HT4-2-Mut2 template G-quadruplex DNA (unknown origin) assessed as inhibition of polymerase progression at 2nt separation site at 20 to 100 uM using FAM-lablled primer P18 and dNTPs measured after 30 mins by phosphorimaging based taq polymerase stop assay
Quadruplex DNA [2] = experiment: Binding affinity to HT G-quadruplex DNA (unknown origin) measured after 5 mins by UV-visible absorption titration method
Quadruplex DNA [3] = experiment: Binding affinity to HT4-2 template G-quadruplex DNA (unknown origin) at 55 degC
Quadruplex DNA [4] = experiment: Binding affinity to HT4-2-Mut1 template G-quadruplex DNA (unknown origin) assessed as inhibition of polymerase progression at 2nt separation site at 20 to 100 uM using FAM-lablled primer P18 and dNTPs measured after 30 mins by phosphorimaging based taq polymerase stop assay
Quadruplex DNA [5] = experiment: Binding affinity to HT4-2-Mut3 template G-quadruplex DNA (unknown origin) assessed as inhibition of polymerase progression at 2nt separation site at 20 to 100 uM using FAM-lablled primer P18 and dNTPs measured after 30 mins by phosphorimaging based taq polymerase stop assay
Quadruplex DNA [6] = experiment: Binding affinity to HT G-quadruplex DNA (unknown origin) assessed as stabilization of parallel G-quadruplex structure at 10 to 70 uM by CD spectroscopic method
Quadruplex DNA [7] = experiment: Binding affinity to HT4-2 template G-quadruplex DNA (unknown origin) assessed as primer extension stopped right before TTAGGG-repeating at 20 to 100 uM using FAM-lablled primer P18 and dNTPs measured after 30 mins in presence of marker 2 by phosphorimaging based taq polymerase stop assay
Quadruplex DNA [8] = experiment: Binding affinity to HT4-2 template G-quadruplex DNA (unknown origin) assessed as inhibition of polymerase progression at 2nt separation site at 20 to 100 uM using FAM-lablled primer P18 and dNTPs measured after 30 mins by phosphorimaging based taq polymerase stop assay

[N-]=[N+]=NCCCC[N+]1(CCOc2ccc(/N=N/c3ccc(OCC[N+]4(CCCCN=[N+]=[N-])CCCCC4)cc3)cc2)CCCCC1
inhibition (Quadruplex DNA [1]): inactive | K (Quadruplex DNA [2]): 2.1 ×10⁵ /M | Activity (Quadruplex DNA [3]): inactive | inhibition (Quadruplex DNA [4]): inactive | inhibition (Quadruplex DNA [5]): inactive | Activity (Quadruplex DNA [6]): Active | Activity (Quadruplex DNA [7]): Active | inhibition (Quadruplex DNA [8]): Active
